In paper PMC5449183, “Helical jackknives control the gates of the double-pore K^+ uptake system KtrAB” (eLife, 2017):

What was measured:
[1] = molecular target: T1, KtrA (RCK subunit of the KtrAB complex) (Vibrio alginolyticus, UniProt O87952); test: ITC on detergent-solubilized KtrAB; […] Å cryo-EM map in the presence of ADP (EMD-3450); pulsed EPR; type: binding; design: full-length KtrAB, His10-KtrAB, detergent-solubilized complex (octameric KtrA ring); with KtrB
[2] = molecular target: T1, KtrA (RCK subunit of the KtrAB complex); test: biochemical
[3] = molecular target: KtrB from Vibrio alginolyticus (untagged, of the His10-KtrAB complex) (Vibrio alginolyticus) (UniProt O87953); test: cryo-EM structure; His10-KtrAB 5 mg/ml, detergent-solubilised (1.5 mM Cymal-6), 600 uM ADP, 70 mM NaCl, 30 mM KCl, 20 mM Tris-HCl pH 8.0; 20,500 particles, D2 symmetry, 6.6 A; model by flexible fitting of a homology model
[4] = molecular target: the molecule itself; test: as above

T1 sequence (O87953 whole entry, one chain of several, further chain): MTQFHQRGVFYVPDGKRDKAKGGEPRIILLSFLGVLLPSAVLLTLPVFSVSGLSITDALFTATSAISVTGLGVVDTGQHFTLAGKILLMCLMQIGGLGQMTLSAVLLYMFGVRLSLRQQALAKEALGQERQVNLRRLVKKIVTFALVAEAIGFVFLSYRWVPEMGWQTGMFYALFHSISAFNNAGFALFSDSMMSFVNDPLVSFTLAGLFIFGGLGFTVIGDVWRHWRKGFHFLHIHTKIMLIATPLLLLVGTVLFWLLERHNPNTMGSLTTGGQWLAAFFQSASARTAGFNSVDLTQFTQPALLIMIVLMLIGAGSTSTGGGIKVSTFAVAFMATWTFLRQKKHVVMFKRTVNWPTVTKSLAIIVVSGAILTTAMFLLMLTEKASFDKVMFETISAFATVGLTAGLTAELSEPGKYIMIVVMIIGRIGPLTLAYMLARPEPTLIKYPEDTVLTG

Nc1ncnc2c1ncn2[C@@H]1O[C@H](COP(=O)(O)OP(=O)(O)O)[C@@H](O)[C@H]1O [ADP]
Kd [1]: 3000 nM

Nc1ncnc2c1ncn2[C@@H]1O[C@H](COP(=O)(O)OP(=O)(O)OP(=O)(O)O)[C@@H](O)[C@H]1O [ATP]
Kd [2]: 2000 nM

KtrB from Vibrio alginolyticus (untagged, of the His10-KtrAB complex) (from UniProt O87953 1-455) (natural protein)
stoichiometry N [3]: 2

B1: KtrA from Vibrio alginolyticus (His10-KtrA of the His10-KtrAB complex) (natural protein, UniProt O87952 1-220, looked up)
chain: MKTGDKQFAVIGLGRFGLAVCKELQDSGSQVLAVDINEDRVKEAAGFVSQAIVANCTHEETVAELKLDDYDMVMIAIGADVNASILATLIAKEAGVKSVWVKANDRFQARVLQKIGADHIIMPERDMGIRVARKMLDKRVLEFHPLGSGLAMTEFVVGSRLMGKTLSDLALCKVEGVQVLGYKRGPEIIKAPDMSTTLEIGDLIIVVGPQDKLANKLKSL
notes: KtrA, cytoplasmic RCK subunit of the K+ uptake system KtrAB, Vibrio alginolyticus; gene amplified from genomic DNA; Forms an octameric ring (eight chains) in the complex KtrB2A8B2; The N-terminal end of the tag is read from the label His10-KtrAB; ADP (600 uM) was present in the cryo-EM sample; also called VaKtrA; RCK subunit; source: E. coli LB2003, co-expressed with KtrB from pBAD18 …
stoichiometry N [4]: 8
